Counter-ions that a name gives are not always drawn.
What was measured:
Type 2 diabetes = conditions: oral administration, human Type 2 diabetics; cited from earlier work
[1] = in vitro dissolution profile of sitagliptin phosphate from the drug film layer; type: physicochemical; conditions: FIG. 2
Text: FIG. 2 is a graph showing in vitro dissolution profiles for sitagliptin phosphate from the drug film layer in a pharmaceutical composition of the present invention compared to sitagliptin phosphate in JANUMET™ which is a marketed fixed-dose combination of immediate-release metformin hydrochloride and immediate-release sitagliptin phosphate.

time to complete dissolution ([1]; sitagliptin phosphate from the immediate-release drug film layer of the composition) [min]	SMILES	effect on fasting glucose, postprandial glucose excursion and HbA1c (Type 2 diabetes)	dissolution compared with sitagliptin phosphate in JANUMET ([1]; sitagliptin phosphate from the drug film layer vs marketed immediate-release fixed-dose combination)
	Cn1c(=O)cc(N2CCC[C@@H](N)C2)n(Cc2ccccc2C#N)c1=O [alogliptin]	reduce fasting glucose and postprandial glucose excursion in association with significantly reduced HbA1c levels	
≤ 30	N[C@@H](CC(=O)N1CCn2c(nnc2C(F)(F)F)C1)Cc1cc(F)c(F)cc1F [sitagliptin phosphate, dihydrogenphosphate salt of (2R)-4-oxo-4-[3-(trifluoromethyl)-5,6-dihydro[1,2,4]triazolo[4,3-a]pyrazin-7(8H)-yl]-1-(2,4,5-trifluorophenyl)butan-2-amine]		comparable to that of sitagliptin phosphate in JANUMET™
	N[C@@H](CC(=O)N1CCn2c(nnc2C(F)(F)F)C1)Cc1cc(F)c(F)cc1F [sitagliptin, (2R)-4-oxo-4-[3-(trifluoromethyl)-5,6-dihydro[1,2,4]triazolo[4,3-a]pyrazin-7(8H)-yl]-1-(2,4,5-trifluorophenyl)butan-2-amine]	reduce fasting glucose and postprandial glucose excursion in association with significantly reduced HbA1c levels	
	N#C[C@@H]1CCCN1C(=O)CNC12CC3CC(CC(O)(C3)C1)C2 [vildagliptin]	reduce fasting glucose and postprandial glucose excursion in association with significantly reduced HbA1c levels	

From US20100330177A1, “PHARMACEUTICAL COMPOSITIONS OF A COMBINATION OF METFORMIN AND A DIPEPTIDYL PEPTIDASE-IV INHIBITOR” (Merck Sharp & Dohme Corp., priority 2009, published 2010)
